Laboratory results taken from PubChem BioAssay (NCI).
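Tested at 5 concentrations; 48 h exposure; 96-well plates; endpoints linearly interpolated, else capped at highest concentration. GI50 = concentration required for 50% inhibition of growth. At the TGI there is no net growth.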

Key:
Test in all cases: growth of human tumour cells (NCI), 48 h
[1] = system: 786-0 renal
[2] = system: HCT-116 colon
[3] = system: EKVX NSCLC
[4] = system: SF-295 CNS
[5] = system: HOP-62 NSCLC
[6] = system: NCI-H460 lung
[7] = system: OVCAR-5 ovarian
[8] = system: UACC-257 melanoma
[9] = system: HCT-15 colon
[10] = system: SF-539 CNS
[11] = system: SK-MEL-28 melanoma
[12] = system: SK-OV-3 ovarian
[13] = system: SF-268 CNS
[14] = system: T-47D breast
[15] = system: KM12 colon
[16] = system: RPMI-8226 leukemia
[17] = system: DU-145 prostate
[18] = system: OVCAR-8 ovarian
[19] = system: IGROV1 ovarian
[20] = system: SW-620 colon
[21] = system: OVCAR-4 ovarian
[22] = system: SR leukemia
[23] = system: NCI/ADR-RES ovarian
[24] = system: RXF 393 renal
[25] = system: K-562 leukemia
[26] = system: SNB-75 CNS
[27] = system: SNB-19 CNS
[28] = system: A498 renal

With `Fc1ccc(Nc2nc(Nc3ccc(-c4nc5ccccc5[nH]4)cc3)c3cn[nH]c3n2)cc1` as the compound, how does the TGI [1] read?
Its TGI is 3.11 µM.

What about the GI50 [2] of the same compound?
Its GI50 is 1750 nM.

And the TGI [2]?
Its TGI is 3.58 µM.

What about the GI50 [3] of the same compound?
Its GI50 is 2500 nM.

What about the TGI [3] of the same compound?
The TGI was 8.28 µM.

What about the GI50 [4] of the same compound?
The GI50 was 1870 nM.

And the TGI [4]?
Its TGI is 4.08 µM.

And the GI50 [5]?
The GI50 was 2040 nM.

And the TGI [5]?
The TGI was 5.02 µM.

What about the GI50 [6] of the same compound?
The GI50 was 1990 nM.

What about the TGI [6] of the same compound?
The TGI was 3.97 µM.

What about the GI50 [7] of the same compound?
The GI50 was 2660 nM.

What about the TGI [7] of the same compound?
Its TGI is 7.62 µM.

And the GI50 [8]?
Its GI50 is 2000 nM.

And the TGI [8]?
The TGI was 4.37 µM.

What about the GI50 [9] of the same compound?
The GI50 was 1760 nM.

What about the TGI [9] of the same compound?
Its TGI is 4.78 µM.

And the GI50 [10]?
The GI50 was 1770 nM.

What about the TGI [10] of the same compound?
The TGI was 3.48 µM.

And the GI50 [11]?
The GI50 was 1880 nM.

And the TGI [11]?
The TGI was 3.78 µM.

What about the GI50 [12] of the same compound?
The GI50 was 5.03 µM.

What about the TGI [12] of the same compound?
Its TGI is 17.5 µM.

What about the GI50 [13] of the same compound?
Its GI50 is 2110 nM.

And the TGI [13]?
The TGI was 5.4 µM.

What about the GI50 [14] of the same compound?
The GI50 was 1900 nM.

And the TGI [14]?
Its TGI is 5 µM.

And the GI50 [15]?
The GI50 was 1640 nM.

And the TGI [15]?
Its TGI is 3.48 µM.

And the GI50 [16]?
The GI50 was 2300 nM.

What about the TGI [16] of the same compound?
Its TGI is 5.2 µM.

And the GI50 [17]?
The GI50 was 1870 nM.

And the TGI [17]?
Its TGI is 3.75 µM.

And the GI50 [18]?
Its GI50 is 2370 nM.

And the TGI [18]?
Its TGI is 5.37 µM.

And the GI50 [19]?
Its GI50 is 1750 nM.

What about the TGI [19] of the same compound?
The TGI was 3.84 µM.

And the GI50 [20]?
Its GI50 is 2030 nM.

And the TGI [20]?
The TGI was 4.24 µM.

What about the GI50 [21] of the same compound?
Its GI50 is 1600 nM.

And the TGI [21]?
The TGI was 3.6 µM.

And the GI50 [22]?
Its GI50 is 2220 nM.

What about the TGI [22] of the same compound?
The TGI was 5.9 µM.

What about the GI50 [23] of the same compound?
Its GI50 is 2110 nM.

What about the TGI [23] of the same compound?
The TGI was 5.04 µM.

What about the GI50 [24] of the same compound?
The GI50 was 1670 nM.

And the TGI [24]?
Its TGI is 3.4 µM.

And the GI50 [25]?
Its GI50 is 3.04 µM.

And the TGI [25]?
Its TGI is 7.41 µM.

And the GI50 [26]?
The GI50 was 1350 nM.

What about the TGI [26] of the same compound?
The TGI was 3.57 µM.

And the GI50 [27]?
The GI50 was 3.16 µM.

What about the TGI [27] of the same compound?
Its TGI is 9.61 µM.

And the GI50 [28]?
Its GI50 is 14.6 µM.

What about the TGI [28] of the same compound?
The TGI was 27.7 µM.
